The source of these data is patent US5739166A, “Substituted terphenyl compounds for the treatment of inflammation” (G.D. Searle & Co., priority 1994, dated 1998).

The subject of the assay is hyperalgesic foot withdrawal. The assay can be described thus: Rat Carrageenan-induced Analgesia Test. Format: in vivo, Male Sprague-Dawley rats. Conditions: oral, assay performed at 50 mg/kg body weight, 3 hours after carrageenan.

Structures are written as SMILES.

Method: Male Sprague-Dawley rats were treated as previously described for the Carrageenan Foot Pad Edema test. Three hours after the injection of the carrageenan, the rats were placed in a special plexiglass container with a transparent floor having a high intensity lamp as a radiant heat source; positionable under the floor. After an initial twenty minute period, thermal stimulation was begun on either the injected foot or on the contralateral uninjected foot. A photoelectric cell turned off the lamp and timer when light was interrupted by paw withdrawal. The time until the rat withdraws its foot was then measured. The withdrawal latency in seconds was determined for the control and drug-treated groups, and percent inhibition of the hyperalgesic foot withdrawal determined.

As to `COc1ccc(-c2cc(F)c(F)cc2-c2ccc(S(N)(=O)=O)cc2)cc1Cl` [Example 20, 4-[2-(3-chloro-4-methoxyphenyl)-4,5-difluorophenyl]benzenesulfonamide], the “ANALGESIA % Inhibition” value was found to be 22%.
